Measurements as given in patent publication EP4810046A1, “USE OF PENTACYCLIC TRITERPENE COMPOUND TARGETING HYDROXYSTEROID 17-B DEHYDROGENASE 4” (Jiangsu Bcy Pharm. Co., Ltd, priority 2023, dated 2025).

Experiments:
MFE-2 [1] = biological target: T1, MFE-2 (Mus musculus, UniProt P51660); experiment: CKBA-biotin pull-down and Western blot for direct binding to MFE-2; details: microglial cell line (BV2), CKBA-biotin 5µM, 6 hours
T1 construct: endogenous in cells; host or cells: BV2 mouse microglial cell line
T1 sequence (P51660 1-735): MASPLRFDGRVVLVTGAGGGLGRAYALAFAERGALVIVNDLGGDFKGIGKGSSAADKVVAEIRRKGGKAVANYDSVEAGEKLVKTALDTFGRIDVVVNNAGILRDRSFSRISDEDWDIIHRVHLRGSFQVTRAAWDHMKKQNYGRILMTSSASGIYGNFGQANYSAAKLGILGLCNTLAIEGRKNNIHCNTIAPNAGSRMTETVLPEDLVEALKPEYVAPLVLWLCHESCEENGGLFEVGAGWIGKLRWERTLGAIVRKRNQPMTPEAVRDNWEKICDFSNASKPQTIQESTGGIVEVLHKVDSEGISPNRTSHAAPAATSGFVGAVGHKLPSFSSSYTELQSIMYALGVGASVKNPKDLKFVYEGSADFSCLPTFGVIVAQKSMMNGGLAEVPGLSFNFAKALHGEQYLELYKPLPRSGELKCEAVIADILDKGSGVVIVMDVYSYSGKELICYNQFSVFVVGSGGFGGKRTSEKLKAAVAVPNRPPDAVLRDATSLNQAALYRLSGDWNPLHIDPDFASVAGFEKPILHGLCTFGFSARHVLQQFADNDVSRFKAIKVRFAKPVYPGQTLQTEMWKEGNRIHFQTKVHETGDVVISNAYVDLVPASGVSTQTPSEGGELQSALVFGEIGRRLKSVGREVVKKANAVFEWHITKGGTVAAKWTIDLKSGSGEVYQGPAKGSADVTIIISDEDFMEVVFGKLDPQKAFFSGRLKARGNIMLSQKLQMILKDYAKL
Protocol: CKBA pull-down assay was performed to detect the direct interaction between CKBA and MFE-2. Specifically, CKBA was labeled with Biotin. CKBA-biotin was added to the culture medium at a final concentration of 5µM for 6 hours. Cells were then washed, lysed, and incubated with Streptavidin magnetic beads under rotation at 4°C for 3 hours. After washing the beads 4 times, loading buffer was added, and the samples were boiled at 96°C for 5 minutes. Western blot (WB) was used to detect MFE-2 protein levels to assess the direct interaction between the small molecule compound and MFE-2.
(§1) The Western blot procedure comprised: fresh cells or tissue samples were immersed in lysis buffer and placed on ice for 10-15 minutes. After observing that the cells/tissues were fully lysed into a homogeneous turbid liquid, the samples were placed on ice for an additional 10 minutes. Centrifugation was performed at 12000 rpm for 10 minutes, and the supernatant was collected. Total protein concentration was determined using the BCA method. Subsequently, steps including loading, electrophoresis, membrane transfer, blocking, and incubation with primary and secondary antibodies were carried out. After developing with ECL chemiluminescent substrate, ImageJ was used to analyze protein content.

LPS-activated BV2 cells = experiment: CCK-8 assay of CKBA-treated LPS-activated BV2 cells; assay type: cell-based, mouse; details: 0.1-20 µM CKBA, 24 hours
Protocol: The mouse microglial cell line BV2 was seeded into 96-well flat-bottom plates and cultured overnight to allow full cell adherence. BV2 cells were activated by stimulation with LPS. LPS (Sigma) stock solution (5 mg/mL) was added to the BV2 cell culture supernatant and mixed well. After 12 hours of activation, cell morphology was observed. […]
Subsequently, a CCK8 assay (Dojindo, Japan) was performed to measure cell viability. The cell culture medium was removed from the 96-well plate, and 100 µL of diluted CCK8 reaction solution was added to each well. The plate was protected from light. Incubation conditions: 37°C incubator for about 1-2 hours. After 1 hour of incubation, the plate was removed, and the colorimetric (orange) signal was detected using a multifunctional microplate reader (Tecan Infinite 200 pro, Austria). Depending on the signal intensity, the plate could be further incubated for 1.5/2 hours, and the signal was measured at multiple time points. The colorimetric intensity values were recorded, and subsequent statistical analysis and graphing were performed using SPSS.
In vitro cell experiments were performed to analyze the effect of CKBA on the inflammatory activation of microglia.

[2] = mouse, po, 100 mg/kg
Protocol: Based on the above optimized method, the absolute content of CKBA in brain tissue was further detected. For absolute content detection of CKBA in brain tissue, normal mice were administered CKBA by oral gavage. One hour after administration, the mice were perfused, and fresh brain tissue and serum were collected for mass spectrometry analysis.

AD mice = experiment: Behavioral tests (Morris water maze, open field, Y-maze) in AD mice after oral gavage treatment; assay type: in vivo; details: compared with vehicle control group
Protocol: For evaluation of therapeutic efficacy in animal models, a 15mg/mL CKBA suspension (solvent: 0.5% sodium carboxymethylcellulose) was administered by oral gavage at a volume of 200µL (equivalent to a dose of 100mg/kg). […] Therapeutic efficacy was evaluated after the treatment period.
• (1) 5xFAD transgenic mice: These mice overexpress mutant human APP (695) carrying the Swedish (K670N, M671L), Florida (I716V) and London (V717I) familial Alzheimer's disease (FAD) mutations, as well as human PS1 carrying two FAD mutations (M146L and L286V). Expressions of both transgenes are driven by the mouse neuron-specific regulatory element Thy1 promoter to achieve overexpression in the brain. […] 5XFAD mice produce almost exclusively Aβ-42 and rapidly accumulate it in the brain. • (2) Preparation of MS mouse (EAE) model and evaluation of CKBA intervention efficacy
Evaluation of the therapeutic effect of CKBA on AD: 8-10 month old 5xFAD mice, 5xFAD mice treated with the small molecule drug CKBA and control mice were subjected to behavioral tests including the Morris water maze, open field test and rotarod test to evaluate higher central nervous system functions. During the behavioral tests, the animal movement trajectory tracking system (EthoVision XT 16.0) was used for full-recording and offline analysis.
Morris water maze: Mice underwent a 5-day adaptive training period, wherein abnormal individuals were excluded. On the final day, after removing the platform, a probe trial was performed. Quantitative data were recorded, including the escape latency after entering the water in each quadrant during the learning phase, the number of platform crossings, and the latency to reach the platform area.
Open field test: The spontaneous activity path of mice in a 50cm*50cm*40 cm novel open field within 5 minutes was recorded. The distance traveled and time spent in the center area were analyzed to assess anxiety-related behavior.
AD mice were treated with CKBA by oral gavage (Figure 5A) for in vivo intervention studies, with continuous intervention for 3 months. […]

inflammatory microglia = experiment: Seahorse energy metabolism (OCR) assay of CKBA-treated, LPS-stimulated BV2 cells; assay type: cell-based, mouse; details: Figure 4B
Protocol: The specific methods for CKBA treatment and LPS activation of the BV2 cell line were as described above.
The main steps of the Seahorse assay were as follows: Seahorse XF Cell Mitochondrial Stress Analysis: Single cells from brain tissue were obtained using the aforementioned experimental methods. Microglia in brain tissue were collected by flow cytometry sorting. Primary microglia were seeded into Seahorse XF cell culture plates 4-7 days in advance. After the cells were fully adherent, the probe plate was hydrated with double-distilled water and placed in a CO2-free 37°C incubator overnight. The next day, the calibration solution was replaced to further equilibrate and hydrate the probes. On the day of the experiment, the assay solution was prepared, and the corresponding substrates (glucose, pyruvate, glutamine, etc.) from the kit were added. The pH was adjusted to 7.4. […] OCR/ECAR values were recorded at different time points after drug addition. After recording, the cell plate was removed, and the number of microglia per well was counted under an inverted microscope. After normalizing OCR/ECAR to the cell number, intracellular mitochondrial stress levels were quantitatively analyzed.
Seahorse energy metabolism analysis was performed. By measuring the changes in oxygen consumption reagents and dissolved oxygen content in the cell culture medium, the OCR of the cells was calculated.

MFE-2 [3] = biological target: T1, MFE-2; experiment: MFE-2 protein expression in BV2 cells with and without LPS stimulation (Western blot); assay type: cell-based
Protocol: Cell treatment: For cell treatment, CKBA was dissolved in DMSO to prepare a stock solution at a concentration of 5mM (1000×), stored at -20°C. For use, the stock solution was added to the cell culture medium at a dilution of 1:1000 and mixed well. The final working concentration was 5µM. Cells were treated for 24-48h and then collected for subsequent experiments.
as §1
Further exploration was conducted to investigate the mode of action of CKBA on the MFE-2 protein.

Solubility description = assay type: physicochemical; details: methanol/DMSO; water

In the case of `C[C@H]1[C@H](C)CC[C@]2(C)CC[C@]3(C)C(=CC(=O)[C@@H]4[C@@]5(C)CC[C@@H](OC(=O)C6CCCCC6)[C@](C)(C(=O)O)[C@@H]5CC[C@]43C)[C@H]12` [CKBA, 3-o-α-cyclohexanoyl-11-keto-β-boswellic acid], the “binding to MFE-2 protein (pull-down)” value (MFE-2 [1]) is reported as “could bind to the MFE-2 protein”, the “expansion of inflammatory microglia” value (LPS-activated BV2 cells) is reported as “significantly inhibited the expansion of inflammatory microglia” and the peroxisome stability (LPS-activated BV2 cells) is reported as “maintained peroxisome stability”. For the same compound, the blood-brain barrier permeability [2] was “could effectively cross the blood-brain barrier”, the platform crossover number (AD mice) was “significant increase” and the “time spent in the opposite quadrant” value (AD mice) was “significant decrease”. For the same compound, the “time spent in the specific effective area (center area) as a percentage of total movement time” value (AD mice) was “significant increase”, the “activity of inflammatory microglia (OCR)” value (inflammatory microglia) was “significantly inhibited the activity of inflammatory microglia” and the “expression and content of MFE-2 after LPS stimulation” value (MFE-2 [3]; LPS-stimulated BV2 cells) was “effectively maintained the expression and content of MFE-2”. The “baseline expression level of MFE-2” value (MFE-2 [3]; normal BV2 cells, no LPS) was “did not affect the baseline expression level of MFE-2” and the solubility (Solubility description) was “lipophilic, soluble in methanol/DMSO, insoluble in water”.
